Series [1] deals with patient addicted to narcotics. The conditions noted are these: background statement, prior practice, dose not given; cited from earlier work.
For series [2], the system named is patient addicted to narcotics. As to the kind of experiment: Clinical treatment of acute and severe diarrhea accompanying rapid narcotic detoxification (acute withdrawal). It is filed as in vivo, human. Particulars: parenteral, about 0.025 mg to about 0.1 mg octreotide, preferably about 0.0007 mg/kg, before nalmefene. The protocol: A medication to induce unconsciousness is administered, preferably by the intravenous route, in doses appropriate for the patient's weight and medical condition. This medication should be a non-opioid derivative not related to the narcotic classification of drugs, such as midazolam, propofol, sodium pentothal, a combination thereof, or other drugs commonly used to induce unconsciousness. As a specific example, a dose of 0.3 milligrams of midazolam per kilogram of body weight administered intravenously is usually sufficient to produce unconsciousness.
After octreotide and glycopyrrolate have been administered and the patient's vital signs are stable, nalmefene is administered parenterally, preferably by intravenous route. For a 70 kilogram adult patient, the typical initial dose of parenteral nalmefene is from about 0.5-1.5 mg to no more than about 1.5-2.0 of nalmefene. The dosage is adjusted proportionally based on the weight of the patient, and the rate of administration of nalmefene may be titrated upward or downward depending on the response of the patient's sympathetic nervous system as evidence by monitoring of life functions and other clinical criteria. Some time thereafter, usually no more than four hours after said administration of nalmefene is complete, the patient can be expected to be detoxified and can be safely rendered back to a state of consciousness. […]

The test system of series [3] is patient addicted to narcotics. Particulars: background statement, prior practice, dose not given; cited from earlier work. This is another data set of the same source.
Series [4] deals with patient addicted to narcotics. The series is described as follows: Clinical tolerability (bradycardia, abdominal distention) of octreotide during rapid narcotic detoxification. Particulars: parenteral.
Description: A patient addicted to narcotics undergoes intravenous cannulation by either the peripheral or central venous route, and the appropriate intravenous solution is infused intravenously at the required rate for the size and conditions of the patient. Monitors of life function are attached to the patient which may include a pulse oximeter, electrocardiogram patches, a blood pressure cuff attached to a sphygmomanometer and a means to measure the carbon dioxide of the patient's exhaled breath by way of capnography.
This is typically followed by intravenous administration of a medication such as a depolarizing or non-depolarizing neuromuscular blocking agent to facilitate intubation of the patient's trachea. The endotracheal tube is then secured in the correct anatomic position using usual anesthetic care measures. After stabilization of the patient's life functions as usually done in routine anesthetic management, the patient is administered parenterally about 0.025 mg to about 0.1 mg octreotide, preferably about 0.0007 mg/kg of body weight.
As noted previously, glycopyrrolate is preferred and is administered parenterally with the octreotide in an amount ranging from about 0.2 mg to above 0.4 mg glycopyrrolate. However, from about 0.2 mg to about 0.4 mg atropine administered parenterally is also effective.

Regarding octreotide, in series [1], the “treating clinically significant diarrhea during rapid detoxification” value is listed as “proven effective”. Moreover, the “prevention of acute and severe diarrhea accompanying acute detoxification” value in series [2] was “sufficient to prevent the acute and severe diarrhea”. Further, in series [3], the incidence of bradycardia result is reported as “unacceptable incidence of bradycardia”. Also, in series [4] (about 0.025 mg to about 0.05 mg octreotide every 12 hours), the “bradycardia in the post-detoxification period” value is “without causing significant bradycardia”. The bradycardia entry in series [4] (about 0.025 mg to about 0.1 mg octreotide, preferably about 0.0007 mg/kg) was “does not precipitate significant bradycardia”. Also, the abdominal distention entry in series [4] (about 0.025 mg to about 0.1 mg octreotide, distention frequently observed at higher dosage levels) is listed as “does not result in the abdominal distention”.

The values are drawn from patent publication US6214792A, “Method for treating acute and severe diarrhea” (priority 1999, dated 2001).
